Test results published in patent publication US11673916B2, “Neuroprotective peptides and methods of their use” (University of Pittsburgh—Of the Commonwealth System of …, priority 2020, dated 2023).

Tested on: MCAo mouse model of ischemic stroke
Assay: Murine neurological score (MNS) after MCAo
Format: in vivo
Conditions: 50 minutes left MCAo, IP injection at one and six hours post-reperfusion, versus scrambled control (FIG. 6E)
Procedure: To analyze neurological deficits following MCA stroke, testing was performed by a blinded experimenter on additional cohorts, both at baseline (all initial scores were 0) and on post-stroke days 1, 2, 3, 5, 7, 10, 14, 21, 28, 35, and 42. An objective murine neurological score (Table 3) was assigned on each date, ranging from 0 (no neurological deficit) to 8 (stroke-related death) (Yeh et al., J Neurosci. 37: 5648-5658, 2017).
Twenty-four hours following cerebral reperfusion after MCAo, total infarct ratios were analyzed (FIG. 6B) in tetrazolium chloride-stained brain sections (FIGS. 6B and 6C). […] Preparation of peptides, MCAo surgery and injection, as well as infarct analysis were all randomized and performed blindly. A second cohort of mice was subjected to 50-minute MCAo, followed by TAT-DP-2 or TAT-Sc-2 injection at one and six-hours post-reperfusion (FIG. 6A). A different, blinded observer then analyzed each animal and assigned an objective murine neurological score (MNS; Table 3) to each mouse over a 42-day period. As the MNS is based solely on characteristic motor deficits developed following left MCAo, all animals initially scored zero on the scale.

In the case of “YGRKKRRQRRRSIDSFTS [TAT-DP-2, TAT-linked declustering peptide 2]”, the “murine neurological score (MNS) over 42 days post-MCAo” value is reported as “significant preservation of favorable neurological score”.
